From PubChem BioAssay AID248 (DTP/NCI, 2004)
Where “and” joins values, the source holds several entries; their conditions need not be identical. Equal values may be shown once. Inconclusive results and toxic doses are left out. Rule as the data show it: active = T/C of 150% or more; inactive = T/C below 125%.

Test system: L1210 leukemia ip in BDF1 mice, survival T/C
Experiment: NCI In Vivo Anticancer Drug Screen. Data for tumor model L1210 Leukemia (intraperitoneal) in B6D2F1 (BDF1) mice
Conditions: endpoint: mean survival time, higher = longer survival
Summary of the method: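 Tumor cells were implanted, animals were treated, and survival was followed. The result divides the treated measurement by the vehicle-control measurement.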

[1] = dose: 100.0 mg/kg/injection, schedule: Q01DX009 (ip), vehicle: Klucel (hydroxypropylcellulose) (HPC)
[2] = dose: 100.0 mg/kg/injection, schedule: Q04DX002 (ip), vehicle: Klucel (hydroxypropylcellulose) (HPC)
[3] = dose: 200.0 mg/kg/injection, schedule: Q04DX002 (ip), vehicle: Klucel (hydroxypropylcellulose) (HPC)
[4] = dose: 400.0 mg/kg/injection, schedule: Q04DX002 (ip), vehicle: Klucel (hydroxypropylcellulose) (HPC)
[5] = dose: 100.0 mg/kg/injection, schedule: Q01DX001 (ip), vehicle: carboxymethylcellulose (CMC)
[6] = dose: 200.0 mg/kg/injection, schedule: Q01DX001 (ip), vehicle: carboxymethylcellulose (CMC)
[7] = dose: 400.0 mg/kg/injection, schedule: Q01DX001 (ip), vehicle: carboxymethylcellulose (CMC)
[8] = dose: 100.0 mg/kg/injection, schedule: Q01DX009 (ip), vehicle: saline
[9] = dose: 200.0 mg/kg/injection, schedule: Q01DX009 (ip), vehicle: saline
[10] = dose: 100.0 mg/kg/injection, schedule: Q01DX001 (ip), vehicle: saline
[11] = dose: 50.0 mg/kg/injection, schedule: Q01DX009 (ip), vehicle: saline
[12] = dose: 200.0 mg/kg/injection, schedule: Q01DX001 (ip), vehicle: saline
[13] = dose: 100.0 mg/kg/injection, schedule: Q04DX003 (ip), vehicle: saline
[14] = dose: 200.0 mg/kg/injection, schedule: Q04DX003 (ip), vehicle: saline

Measured: T/C

CN1CC2=C(C1)C(N(C(=O)c1ccc(-c3ccccc3)cc1)C(=O)c1ccc(-c3ccccc3)cc1)=NCN2
inactive: [1] 97 % of control | dose: 200.0 mg/kg/injection, schedule: Q01DX009 (ip), vehicle: Klucel (hydroxypropylcellulose) (HPC) 94 % of control | dose: 400.0 mg/kg/injection, schedule: Q01DX009 (ip), vehicle: Klucel (hydroxypropylcellulose) (HPC) 94 % of control

O=C(c1ccc(N2CC=C(c3ccccc3)CC2)cc1)C1CC1
inactive: [2] 92 % of control | [3] 95 % of control | [4] 89 % of control

CCC(=O)Nc1cccc(OC(=O)NC(C)(C)C)c1
inactive: dose: 100.0 mg/kg/injection, schedule: Q04DX003 (ip), vehicle: saline with Tween-80 90 % of control | dose: 200.0 mg/kg/injection, schedule: Q04DX003 (ip), vehicle: saline with Tween-80 90 % of control | dose: 400.0 mg/kg/injection, schedule: Q04DX003 (ip), vehicle: saline with Tween-80 89 % of control

COc1cc(C)ccc1OC(=O)Nc1ccccc1
inactive: [2] 109 % of control | [3] 113 % of control | [4] 106 % of control

Fc1c(Cl)c(F)c(Cl)c(F)c1Cl
inactive: [5] 94 % of control | [6] 97 % of control | [7] 94 % of control

NC(CCl)CCl
inactive: dose: 12.5 mg/kg/injection, schedule: Q01DX Z (ip), vehicle: other 92 % of control | dose: 25.0 mg/kg/injection, schedule: Q01DX Z (ip), vehicle: other 100 % of control | dose: 100.0 mg/kg/injection, schedule: Q01DX Z (ip), vehicle: other 94 % of control

O=S1(=O)c2ccccc2C2CC=CCC21 (configuration not stated)
inactive: dose: 50.0 mg/kg/injection, schedule: Q01DX001 (ip), vehicle: carboxymethylcellulose (CMC) 98 % of control | [5] 98 % of control | [6] 98 % of control | [7] 93 % of control

COC(=O)C(Br)C(C)OC (configuration not stated)
inactive: [8] 96 % of control | [9] 101 % of control

CCN(CC)CCCC(C)Nc1ccnc(/C=C/c2ccc(Br)cc2)c1 (configuration not stated)
inactive: dose: 25.0 mg/kg/injection, schedule: Q01DX009 (ip), vehicle: Klucel (hydroxypropylcellulose) (HPC) 98 % of control | dose: 25.0 mg/kg/injection, schedule: Q04DX003 (ip), vehicle: Klucel (hydroxypropylcellulose) (HPC) 108 % of control | dose: 50.0 mg/kg/injection, schedule: Q01DX009 (ip), vehicle: Klucel (hydroxypropylcellulose) (HPC) 106 % of control | dose: 50.0 mg/kg/injection, schedule: Q04DX003 (ip), vehicle: Klucel (hydroxypropylcellulose) (HPC) 108 % of control and 88 % of control | [10] 93 % of control | [1] 97 % of control | dose: 100.0 mg/kg/injection, schedule: Q04DX003 (ip), vehicle: Klucel (hydroxypropylcellulose) (HPC) 97 % of control

CC1CN1P1(N2CC2C)=NP(N2CC2C)(N2CC2C)=NP(N2CC2C)(N2CC2C)=N1 (configuration not stated)
inactive: dose: 12.5 mg/kg/injection, schedule: Q01DX001 (ip), vehicle: saline 106 % of control | dose: 12.5 mg/kg/injection, schedule: Q04DX003 (ip), vehicle: saline 116 % of control | dose: 25.0 mg/kg/injection, schedule: Q01DX001 (ip), vehicle: saline 105 % of control | dose: 25.0 mg/kg/injection, schedule: Q01DX009 (ip), vehicle: saline 118 % of control | dose: 25.0 mg/kg/injection, schedule: Q04DX003 (ip), vehicle: saline 116 % of control | dose: 50.0 mg/kg/injection, schedule: Q01DX001 (ip), vehicle: saline 120 % of control | [11] 111 % of control | dose: 50.0 mg/kg/injection, schedule: Q04DX003 (ip), vehicle: saline 112 % of control | dose: 75.0 mg/kg/injection, schedule: Q04DX003 (ip), vehicle: acetone 120 % of control | [8] 106 % of control | dose: 170.0 mg/kg/injection, schedule: Q04DX003 (ip), vehicle: acetone 105 % of control | [12] 104 % of control

Cc1ccccc1CC1c2[nH]c3ccccc3c2CCN1C (configuration not stated)
inactive: dose: 75.0 mg/kg/injection, schedule: Q01DX001 (ip), vehicle: other 92 % of control | dose: 150.0 mg/kg/injection, schedule: Q01DX001 (ip), vehicle: other 86 % of control

C1=Nc2ccccc2/C1=C/c1cccs1
inactive: [5] 97 % of control | dose: 100.0 mg/kg/injection, schedule: Q01DX009 (ip), vehicle: carboxymethylcellulose (CMC) 96 % of control and 108 % of control | dose: 100.0 mg/kg/injection, schedule: Q04DX002 (ip), vehicle: carboxymethylcellulose (CMC) 100 % of control and 102 % of control | dose: 100.0 mg/kg/injection, schedule: Q04DX003 (ip), vehicle: carboxymethylcellulose (CMC) 95 % of control | [6] 98 % of control | dose: 200.0 mg/kg/injection, schedule: Q01DX009 (ip), vehicle: carboxymethylcellulose (CMC) 96 % of control and 105 % of control | dose: 200.0 mg/kg/injection, schedule: Q04DX002 (ip), vehicle: carboxymethylcellulose (CMC) 104 % of control and 110 % of control | dose: 200.0 mg/kg/injection, schedule: Q04DX003 (ip), vehicle: carboxymethylcellulose (CMC) 89 % of control | [7] 93 % of control | dose: 400.0 mg/kg/injection, schedule: Q01DX009 (ip), vehicle: carboxymethylcellulose (CMC) 89 % of control and 91 % of control | dose: 400.0 mg/kg/injection, schedule: Q04DX002 (ip), vehicle: carboxymethylcellulose (CMC) 103 % of control and 104 % of control

O=[N+]([O-])/C=C\c1cc(Cl)c(/C=C/[N+](=O)[O-])c(Cl)c1Cl
inactive: dose: 2.5 mg/kg/injection, schedule: Q01DX009 (ip), vehicle: saline 88 % of control | dose: 10.0 mg/kg/injection, schedule: Q01DX001 (ip), vehicle: acetone 89 % of control | dose: 10.0 mg/kg/injection, schedule: Q04DX003 (ip), vehicle: acetone 91 % of control | dose: 20.0 mg/kg/injection, schedule: Q01DX001 (ip), vehicle: acetone 94 % of control | dose: 20.0 mg/kg/injection, schedule: Q04DX003 (ip), vehicle: acetone 101 % of control

O=c1[nH]cc(CSC(=S)Nc2ccc(Cl)c(Cl)c2)c(=O)[nH]1
inactive: dose: 15.0 mg/kg/injection, schedule: Q04DX003 (ip), vehicle: saline with Tween-80 104 % of control | dose: 30.0 mg/kg/injection, schedule: Q04DX003 (ip), vehicle: saline with Tween-80 101 % of control | dose: 60.0 mg/kg/injection, schedule: Q04DX003 (ip), vehicle: saline with Tween-80 104 % of control

S=C(Nc1ccccc1)NC1CCCCCC1
inactive: dose: 50.0 mg/kg/injection, schedule: Q01DX009 (ip), vehicle: saline with Tween-80 98 % of control and 92 % of control | dose: 100.0 mg/kg/injection, schedule: Q01DX009 (ip), vehicle: saline with Tween-80 94 % of control | [13] 97 % of control | dose: 200.0 mg/kg/injection, schedule: Q01DX009 (ip), vehicle: saline with Tween-80 90 % of control | [14] 94 % of control

CCCCc1c(N)nc(N)nc1N
inactive: dose: 75.0 mg/kg/injection, schedule: Q01DX001 (ip), vehicle: saline with Tween-80 103 % of control

O=C(C=C(C(F)(F)F)C(F)(F)F)c1ccco1
inactive: dose: 12.5 mg/kg/injection, schedule: Q01DX009 (ip), vehicle: saline with Tween-80 100 % of control | dose: 25.0 mg/kg/injection, schedule: Q01DX009 (ip), vehicle: saline with Tween-80 104 % of control

NCc1ccc([N+](=O)[O-])cc1
inactive: [11] 93 % of control | [10] 96 % of control | [8] 96 % of control | [13] 101 % of control | [12] 104 % of control | [9] 110 % of control | [14] 93 % of control

Nc1ccc(C(=O)CC(N)C(=O)O)cc1O (configuration not stated)
inactive: [5] 112 % of control | [6] 91 % of control | [7] 100 % of control
